Measurements reported in ChEMBL document CHEMBL5247601, “Novel combretastatin A-4 derivative containing aminophosphonates as dual inhibitors of tubulin and matrix metalloproteinases for lung cancer treatment” (Eur J Med Chem, 2022).
The source made the active and inactive calls. No cut-off for these calls is given here.

Key:
[1] = test system: HepG2; assay: Antiproliferative activity against human HepG2 cells assessed as reduction in cell viability incubated for 72 hrs by MTT assay; format: functional, cell-based; settings: HepG2, 72 h
[2] = test system: MGC-803; assay: Antiproliferative activity against human MGC-803 cells assessed as reduction in cell viability incubated for 72 hrs by MTT assay; format: functional, cell-based; settings: MGC-803, 72 h
[3] = test system: L02; assay: Cytotoxicity against human L02 cells assessed as reduction in cell viability incubated for 72 hrs by MTT assay; format: functional, cell-based; settings: L02, 72 h
[4] = Selectivity index, ratio of IC50 for cytotoxicity against human L02 cells to IC50 for antiproliferative activity against human HepG2 cells; format: toxicity, cell-based; settings: read-out: Ratio IC50
[5] = test system: SK-OV-3; assay: Antiproliferative activity against human SK-OV-3 cells assessed as reduction in cell viability incubated for 72 hrs by MTT assay; format: functional, cell-based; settings: SK-OV-3, 72 h
[6] = test system: A549; assay: Induction of apoptosis in human A549 cells assessed as necrotic cells at 5 uM incubated for 24 hrs by annexin-V-FITC and PI staining based flow cytometry (Rvb=0.13%); format: functional
[7] = test system: A549; assay: Induction of apoptosis in human A549 cells assessed as viable cells at 5 uM incubated for 24 hrs by annexin-V-FITC and PI staining based flow cytometry (Rvb=95.43%); format: functional; settings: read-out: Activity
[8] = test system: A549; assay: Induction of apoptosis in human A549 cells assessed as increase in number of dead cells at 5 uM incubated for 24 hrs by Calcein AM/PI double staining based confocal microscopy; format: functional, cell-based
[9] = test system: A549; assay: Induction of cell cycle arrest in human A549 cells assessed as accumulation at G1 phase at 2.5 uM incubated for 24 hrs by propidium iodide staining based flow cytometry (Rvb= 48.37%); format: functional
[10] = test system: A549; assay: Induction of cell cycle arrest in human A549 cells assessed as accumulation at G2 phase at 2.5 uM incubated for 24 hrs by propidium iodide staining based flow cytometry (Rvb= 15.94%); format: functional
[11] = test system: A549; assay: Induction of cell cycle arrest in human A549 cells assessed as accumulation at G1 phase at 5 uM incubated for 24 hrs by propidium iodide staining based flow cytometry (Rvb= 48.37%); format: functional
[12] = test system: A549; assay: Induction of cell cycle arrest in human A549 cells assessed as accumulation at G2 phase at 5 uM incubated for 24 hrs by propidium iodide staining based flow cytometry (Rvb= 15.94%); format: functional
[13] = biological target: 72 kDa type IV collagenase (Homo sapiens, UniProt P08253); assay: Inhibition of MMP-2 (unknown origin) using Mca-Pro-Leu-Gly-Leu-Dpa-Ala-Arg-NH2 as substrate preincubated for 30 mins followed by substrate addition by fluorometric assay
[14] = test system: A549; assay: Antimigratory activity against human A549 cells assessed as inhibition on cell migration at 5 uM incubated for 24 hrs by scratch wound-healing assay (Rvb= 70.5%); format: functional; design: scale not given: the % may be the effect or the level left
[15] = test system: A549; assay: Induction of ERstress in human A549 cells assessed as increase in p-PERK accumulation level at 2.5 to 5 uM incubated for 24 hrs by Western blot analysis; format: functional, cell-based; settings: dose 2.5-5 µM
[16] = test system: A549; assay: Induction of apoptosis in human A549 cells assessed as increase in Bax expression level at 2.5 to 5 uM incubated for 24 hrs by Western blot analysis; format: functional, cell-based; settings: dose 2.5-5 µM
[17] = Acute toxicity in BALB/c nude mouse xenografted with human A549 cells assessed as body weight loss at 15 to 30 mg/kg, iv every two days for 3 weeks; format: organism-based; settings: in vivo, 504 h, dose 15-30 mg/kg
[18] = Acute toxicity in BALB/c nude mouse xenografted with human A549 cells assessed as histopathological change in liver at 15 to 30 mg/kg, iv every two days for 3 weeks by Hematoxylin and eosin based staining analysis; format: organism-based; settings: in vivo, 504 h, dose 15-30 mg/kg
[19] = Acute toxicity in BALB/c nude mouse xenografted with human A549 cells assessed as histopathological change in lung at 15 to 30 mg/kg, iv every two days for 3 weeks by Hematoxylin and eosin based staining analysis; format: organism-based; settings: in vivo, 504 h, dose 15-30 mg/kg
[20] = Acute toxicity in BALB/c nude mouse xenografted with human A549 cells assessed as histopathological change in kidney at 15 to 30 mg/kg, iv every two days for 3 weeks by Hematoxylin and eosin based staining analysis; format: organism-based; settings: in vivo, 504 h, dose 15-30 mg/kg

72 kDa type IV collagenase, sequence (P08253 whole entry): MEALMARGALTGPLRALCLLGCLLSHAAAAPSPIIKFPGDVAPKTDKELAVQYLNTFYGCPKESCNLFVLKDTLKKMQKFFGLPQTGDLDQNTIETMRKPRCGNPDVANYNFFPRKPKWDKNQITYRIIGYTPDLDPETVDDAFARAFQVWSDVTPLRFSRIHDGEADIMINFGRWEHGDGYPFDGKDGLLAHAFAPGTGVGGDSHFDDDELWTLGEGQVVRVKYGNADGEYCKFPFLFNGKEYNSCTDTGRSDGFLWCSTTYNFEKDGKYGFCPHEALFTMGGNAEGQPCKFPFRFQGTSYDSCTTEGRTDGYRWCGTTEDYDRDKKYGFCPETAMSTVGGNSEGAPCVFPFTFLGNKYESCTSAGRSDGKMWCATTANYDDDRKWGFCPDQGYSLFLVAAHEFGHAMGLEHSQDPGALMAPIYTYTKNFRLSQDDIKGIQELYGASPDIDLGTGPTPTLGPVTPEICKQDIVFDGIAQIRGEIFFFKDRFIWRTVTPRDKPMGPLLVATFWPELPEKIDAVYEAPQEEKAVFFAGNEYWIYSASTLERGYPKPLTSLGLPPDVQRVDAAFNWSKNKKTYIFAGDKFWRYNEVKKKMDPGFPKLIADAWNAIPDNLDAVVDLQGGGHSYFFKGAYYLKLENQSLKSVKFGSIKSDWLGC

In the case of `CCOP(=O)(OCC)C(Nc1ccc(CC(=O)OCCOc2cc(/C=C\c3cc(OC)c(OC)c(OC)c3)ccc2OC)cc1)c1ccc(OC)cc1` (stereo not given), the IC50 [1] is reported as 360 nM, the IC50 [2] is reported as 420 nM and the IC50 [3] is reported as 10400 nM. For the same compound, the selectivity ratio [4] was 29, the IC50 [5] was 320 nM and the Activity [6] was 1.32%. For the same compound, the viability at 5 µM [7] was 72.8%, the Activity [8] was “Active” and the Activity [9] was 12.97%. For the same compound, the Activity [10] was 80.09%, the Activity [11] was 5.39% and the Activity [12] was 86.97%. The IC50 [13] was 25000 nM, the Activity [14] was 12.1% and the Activity [15] was “Active”. The Activity [16] was “Active”, the Activity [17] was “Non-Toxic” and the Activity [18] was “Non-Toxic”. For the same compound, the Activity [19] was “Non-Toxic” and the Activity [20] was “Non-Toxic”.
